Results as given in patent US8883782B2, “Spiro-tetracyclic ring compounds as beta-secretase modulators and methods of use” (Amgen Inc., priority 2010, dated 2014).
Read-outs that look alike come from different tables or passages of the source.

How the values were obtained:
[1] = biological target: Beta Secretase enzyme (BACE) (Homo sapiens, UniProt P56817); assay: In vitro enzymatic BACE FRET (fluorescence resonance energy transfer) assay; format: biochemical; conditions: average IC50, enzyme assay; read-out: BACE 1 FRET assay
Beta Secretase enzyme (BACE), sequence (P56817 46-501, species assumed): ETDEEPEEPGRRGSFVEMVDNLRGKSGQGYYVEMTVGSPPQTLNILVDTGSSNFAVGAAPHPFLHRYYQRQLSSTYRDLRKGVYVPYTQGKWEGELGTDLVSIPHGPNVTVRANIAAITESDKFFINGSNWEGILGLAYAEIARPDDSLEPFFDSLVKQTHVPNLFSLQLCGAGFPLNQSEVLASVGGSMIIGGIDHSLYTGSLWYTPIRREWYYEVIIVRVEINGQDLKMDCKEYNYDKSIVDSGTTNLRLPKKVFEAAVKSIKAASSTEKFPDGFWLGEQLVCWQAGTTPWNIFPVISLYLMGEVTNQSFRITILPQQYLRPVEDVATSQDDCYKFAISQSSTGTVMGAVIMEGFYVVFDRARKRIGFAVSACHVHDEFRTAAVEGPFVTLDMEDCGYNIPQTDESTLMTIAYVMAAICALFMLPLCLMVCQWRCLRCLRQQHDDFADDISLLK
Summary of the method: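 Fluorescence read after Tris quench (pH raised to neutrality) of a one-hour BACE reaction. Buffer: acetate 0.05 M, pH 4.2, with 100 uM genapol and 10% DMSO final; started by adding 50 nM FRET peptide substrate spanning the cleavage site.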

[2] = tested on: Aβ40 in conditioned medium of cells stably expressing Amyloid Precursor Protein (APP); assay: In vitro BACE cell-based assay (Aβ40 in conditioned medium, sandwich ELISA); conditions: read-out: HEK cell assay
Summary of the method: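 Step two: 10-point compound titration added, starting 100 μM or 10 μM, 0.1% DMSO. Step three: medium Aβ40 measured by ELISA, capture 3 h and detection 2 h at 4° C, TRF read.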

[3] = Homo sapiens, HEK293, average IC50

| IC50 [1] | IC50 [2, 3] | Compound | IC50 ([2]; average IC50) | also measured |
| --- | --- | --- | --- | --- |
| 3.3 nM | – | COCC1SC(N)=NC12c1cc(-c3cccnc3F)ccc1Oc1c(F)cc(OC)cc12 [Example 1089, (4S/R,5S)-4′-fluoro-7′-(2-fluoropyridin-3-yl)-2′-methoxy-5-(methoxymethyl)-5H-spiro[thiazole-4,9′-xanthen]-2-amine] | 923 nM | – |
| 2400 nM | > 10000 nM | COCC1SC(N)=N[C@@]12c1cc(-c3cccnc3F)ccc1Oc1c(F)cc(OC)cc12 (stereo partly drawn) [Example 1090, (4R)-4′-fluoro-7′-(2-fluoro-3-pyridinyl)-2′-methoxy-5-(methoxymethyl)spiro[1,3-thiazole-4,9′-xanthen]-2-amine] | – | – |
| 5070 nM | > 10000 nM | COCC1SC(N)=N[C@]12c1cc(-c3cccnc3F)ccc1Oc1c(F)cc(OC)cc12 (stereo partly drawn) [Example 1091, (4S)-4′-fluoro-7′-(2-fluoro-3-pyridinyl)-2′-methoxy-5-(methoxymethyl)spiro[1,3-thiazole-4,9′-xanthen]-2-amine] | – | – |
| 5.7 nM | – | COC[C@H]1SC(N)=NC12c1cc(-c3cccnc3F)ccc1Oc1c(F)cc(OC)cc12 (stereo partly drawn) [Example 1092, (4S/R,5S)-4′-fluoro-7′-(2-fluoropyridin-3-yl)-2′-methoxy-5-(methoxymethyl)-5H-spiro[thiazole-4,9′-xanthen]-2-amine] | – | IC50 ([2]; average IC50, HEK cells): 498 nM |
| 4.3 nM | – | COCC1SC(N)=N[C@@]12c1cc(-c3cccnc3F)ccc1Oc1cnc(-c3ccnc(F)c3)cc12 (stereo partly drawn) [Example 1094, (5R)-7-(2-fluoro-3-pyridinyl)-3-(2-fluoro-4-pyridinyl)-5′-(methoxymethyl)spiro[chromeno[2,3-c]pyridine-5,4′-[1,3]thiazol]-2′-amine] | – | IC50 ([2]; Homo sapiens, HEK293, average IC50, HEK cells): 128 nM |
| 2 nM | 3.6 nM | CC1(C#Cc2cnc3c(c2)[C@@]2(COC(N)=N2)c2cc(-c4cccnc4F)c(F)cc2O3)COC1 [compound 108] | – | – |

Continued, compound first:

| Compound | IC50 [1] | IC50 [2, 3] | IC50 ([2]; average IC50) | also measured |
| --- | --- | --- | --- | --- |
| Cc1ccc(-c2cc(F)c3c(c2)[C@]2(CSC(N)=N2)c2cc(-c4cccnc4F)ccc2O3)cn1 [Example 1086, (4S)-4′-fluoro-7′-(2-fluoro-3-pyridinyl)-2′-(6-methyl-3-pyridinyl)spiro[1,3-thiazole-4,9′-xanthen]-2-amine] | 67 nM | 1370 nM | – | – |
| NC1=N[C@@]2(CO1)c1cc(-c3cccnc3F)ccc1Oc1c(F)cc(N3CC4(COC4)C3)cc12 [Example 1087, (4S)-4′-fluoro-7′-(2-fluoro-3-pyridinyl)-2′-(2-oxa-6-azaspiro[3.3]hept-6-yl)spiro[1,3-oxazole-4,9′-xanthen]-2-amine] | 2 nM | 2 nM | – | – |
| COCC1SC(N)=N[C@@]12c1cc(-c3cccnc3F)ccc1Oc1cnc(Cl)cc12 (stereo partly drawn) [Example 1088, (5R)-3-chloro-7-(2-fluoro-3-pyridinyl)-5′-(methoxymethyl)spiro[chromeno[2,3-c]pyridine-5,4′-[1,3]thiazol]-2′-amine, (5S)-3-chloro-7-(2-fluoro-3-pyridinyl)-5′-(methoxymethyl)spiro[chromeno[2,3-c]pyridine-5,4′-[1,3]thiazol]-2′-amine] | 115 nM | – | – | IC50 [2]: 3060 nM |
| (4R)-4′-fluoro-2′-methoxy-7′-(5-pyrimidinyl)spiro[1,3-thiazole-4,9′-xanthen]-2-amine [Example 215] | 8.1 nM | – | 113 nM | – |
| (4S)-2′-(2-chloro-4-pyrimidinyl)-4′-fluoro-7′-(2-fluoro-3-pyridinyl)spiro[1,3-oxazole-4,9′-xanthen]-2-amine [Example 221] | 0.7 nM | – | 129 nM | – |
| (4S)-2′-(((1R)-2,2-difluorocyclopropyl)methoxy)-4′-fluoro-7′-(2-fluoro-3-pyridinyl)spiro[1,3-thiazole-4,9′-xanthen]-2-amine, (4S)-2′-(((1S)-2,2-difluorocyclopropyl)methoxy)-4′-fluoro-7′-(2-fluoro-3-pyridinyl)spiro[1,3-thiazole-4,9′-xanthen]-2-amine [Example 1080] | 0.5 nM | – | 47 nM | – |
| (4S)-4′-fluoro-7′-(2-fluoro-3-pyridinyl)-2′-((2R)-tetrahydro-2H-pyran-2-yl)spiro[1,3-oxazole-4,9′-xanthen]-2-amine [Example 220] | 1.6 nM | – | 12.8 nM | – |
